# From patent US10966911B2, “Melanin decomposition inhibitor” (KAO CORPORATION, priority 2016, dated 2021)
# Experiments:
# human skin tissue [1] = assay: Skin color darkening in cultured human skin tissue (appearance observed and photographed); format: cell-based
# Method: (§1) (1) A normal human skin tissue obtained at the time of a surgical operation was purchased from a Skin Bank of the United States, National Disease Research Interchange (NDRI). The human skin tissue, from which subcutaneous fat was previously removed, was cut into pieces having a size of about 1 cm×about 1 cm by knife and cultured by using a 6-well plate at 37° C. under a 5% CO2 atmosphere. Advanced-DMEM medium containing 10% (v/v) Fetal Bovine Serum (FBS) (Life Technologies, respectively) was used for culture.
# (2) The human skin tissue prepared in accordance with the method described in the above (1) was allowed to stand still in the 6-well plate. Then, phenformin was added in the medium so as to have a final concentration of 300 μM and tissue culture was initiated. The medium replacement was performed every 2 to 3 days. Six days or eight days later, the appearance of the skin tissue was observed and photographed.
# A human skin tissue prepared in accordance with the method of Example 1 (1) was allowed to stand still in a 6-well plate. Then, phenformin was added in a medium at a final concentration of 100, 200 or 300 μM and tissue culture was initiated. Four days later, the appearance of the skin tissue was observed and photographed.
# Skin tissues prepared in accordance with the method of Example 1 (1) were allowed to stand still in 6-well plates. […]
# AMPK = conditions: Non-Patent Literature 2; cited from earlier work
# human skin tissue [2] = assay: Fontana-Masson staining of cultured human skin tissue (melanin deposition); format: cell-based
# Method: as §1, with “culture. (3) Next, the skin tissue cultured was subjected to Fontana-Masson staining to observe deposition of melanin. In the staining, Fontana-Masson Stain Kit manufactured by American […] Scientific, Inc. was used.” for “culture.”
# Pmel17 = assay: Melanosome decomposition in epidermal cells that incorporated MNT-1 melanosomes (Pmel17 Western blotting); format: cell-based, human; conditions: 24 hours, FIG. 8
# Method: As a part of elucidation of skin color darkening action of phenformin and berberine, an effect of phenformin and berberine on melanosome decomposition in, epidermal cells was examined. The epidermal cells were isolated from a foreskin tissue obtained from a Skin Bank of the United States, National Disease Research Interchange (NDRI) in accordance with a predetermined method, and cultured. Melanosomes were prepared from MNT-1 cell strain in accordance with a predetermined method (Murase et al. (2013), J Invest Dermatol, 133: 2416-2424). A predetermined amount of melanosomes was added to epidermal cells and the cells were cultured for 24 hours. Melanosome prepared from MNT-1 cell strain cultured in an area of 35 cm^2 was added per well of the 6-well plate. After the cells were washed with PBS, the epidermal cells which had incorporated melanosome therein were added with phenformin at a final concentration of 100 or 200 μM, berberine at a final concentration of 10, 30 or 60 μM and a Goldenseal extract rich in berberine at a final concentration 0.2 or 0.5% (v/v), and the cells were cultured for a further 24 hours. Protein was extracted and subjected to Western-blotting analysis to determine the expression level of Pmel17, a major protein constituting melanosome.
# LC3-II and p62 proteins [3] = assay: Autophagy markers LC3-II and p62 in epidermal cells (Western blotting); format: cell-based, human; conditions: berberine 10, 30 or 60 μM, 24 hours, FIG. 7
# Method: As a part of elucidation of the skin color darkening action of berberine, the effect on autophagy in epidermal cells was examined. Berberine was added in a medium for the epidermal cells seeded in a 6-well plate at a final concentration of 10, 30 or 60 μM and the epidermal cells were cultured for 24 hours. Protein was extracted and subjected to Western-blotting analysis to determine the expression levels of LC3-II and p62 proteins serving as markers for autophagy.
# As a part of elucidation of skin color darkening action of phenformin and berberine, an effect of phenformin and berberine on melanosome decomposition in, epidermal cells was examined. The epidermal cells were isolated from a foreskin tissue obtained from a Skin Bank of the United States, National Disease Research Interchange (NDRI) in accordance with a predetermined method, and cultured. Melanosomes were prepared from MNT-1 cell strain in accordance with a predetermined method (Murase et al. (2013), J Invest Dermatol, 133: 2416-2424). A predetermined amount of melanosomes was added to epidermal cells and the cells were cultured for 24 hours. Melanosome prepared from MNT-1 cell strain cultured in an area of 35 cm^2 was added per well of the 6-well plate. […]
# LC3-II = assay: Autophagy activity of epidermal keratinocytes (LC3-II accumulation with chloroquine diphosphate, Western blotting); format: cell-based, human; conditions: chloroquine diphosphate 10 μM, 24 hours, FIG. 18
# Method: Normal human neonatal foreskin-derived epidermal keratinocytes (Human Epidermal Keratinocytes, neonatal (HEKn) lightly; keratinocytes) were purchased from Thermo Fisher Scientific. […] The keratinocytes were cultured in a grow medium (Epilife) epidermal keratinocytes (Thermo Fisher Scientific) supplemented with a growth additive (Humedia-KG) (manufactured by Kurabo Industries Ltd.) at 37° C. in 5 vol % CO2 atmospheric conditions.
# Keratinocytes were seeded in a 6-well plate at a density of 1.5×10^5 cells/well (2 mL/well). The following day, proguanil was added so as to obtain a final concentration of 0.3, 1, 3, 10 or 30 μM. Culture was performed at 37° C. in 5 vol % CO2 atmospheric conditions. As a control, the same amount of DMSO was added. […] The following day, Chloroquine diphosphate attached to LC3B Antibody Kit for Autophagy (Thermo Fisher Scientific) was added so as to obtain a final concentration of 10 μM. Culture was performed at 37° C. in 5 vol % CO2 atmospheric conditions for 24 hours. After completion of the culture, SDS-PAGE and western blotting were performed in accordance with the method as mentioned above. As a primary antibody, anti-LC3B (1:1000) attached to the kit mentioned above was used. […] Expression of β-actin as the internal standard was evaluated by using monoclonal antibody specific for β-actin (Sigma-Aldrich, 1:5000).
# human hair follicle = assay: Hair color darkening in cultured human hair follicle (Fontana-Masson staining); format: cell-based; conditions: phenformin 200 μM, Day 5, FIG. 10
# Pmel17 protein = assay: Western blotting of Pmel17 protein in cultured human skin tissue; format: cell-based; conditions: cultured 6 days with or without phenformin, FIG. 3A
# Method: as §1
# The skin tissue prepared in accordance with the method of Example 1 (1) was allowed to stand still in a 6-well plate and cultured in the presence or absence of phenformin for 6 days. Protein was extracted from the skin tissue and used for quantitative analysis of Pmel17 protein, which is a major protein constituting a melanosome, by Western-blotting. Using a mouse anti-human Pmel17 antibody (DAKO) as a primary antibody and a goat anti-mouse IgG antibody as a secondary antibody, signals were detected by using ECL prime reagent (GE Healthcare) and ODYSSEY Fc Imaging System (LICOR). Beta-actin protein as an internal standard was detected in the same manner.
# [4] = test system: AMPK (AMP-activated protein kinase); conditions: human embryonic kidney cells (HEK 293 T cells); Non-Patent Literature 1; cited from earlier work
# LC3-II and p62 proteins [5] = assay: Autophagy markers LC3-II and p62 in cultured human hair follicle (Western blotting); format: cell-based; conditions: phenformin 200 μM, FIG. 11
# Method: A human hair follicle was surgically isolated from a normal human scalp tissue ([…]), which was obtained at the time of surgical operation, and given by a USA dermatologist. The isolated human hair follicle was cultured at 37° C. under a 5% CO2 atmosphere in William E medium supplemented with 20 μg/mL insulin (Sigma-Aldrich), 40 ng/mL hydrocortisone (Sigma-Aldrich), 2 mM L-glutamine (Life Technologies) and a 1% (v/v) penicillin/streptomycin solution (Life Technologies) (all were final concentrations). The isolated human hair follicle was allowed to stand still in a 24-well plate and phenformin was added at a final concentration of 200 μM in the medium. Tissue culture was initiated. Medium replacement was performed Day 1 and Day 3 after the initiation of culture. Follicular tissue at Day 5 after the initiation of culture was embedded in OCT compound (TissueTek) and frozen. These follicular tissues were subjected to Fontana-Masson staining and deposition of melanin was observed.
# From the human hair follicle cultured in accordance with the method of Example 8, protein was extracted and subjected to Western-blotting analysis. In this manner, expression levels of autophagy markers, i.e., LC3-II and p62 proteins, were analyzed.
# LC3-II and p62 proteins [6] = assay: Western blotting of autophagy markers LC3-II and p62 in cultured human skin tissue; format: cell-based; conditions: 4 days, phenformin at different concentrations, FIG. 3B
# Method: as §1
# Further, the skin tissue prepared in accordance with the method of Example 1 (1) was allowed to stand still in a 6-well plate and cultured in the absence or presence of phenformin at a different concentration for 4 days. Proteins were extracted from the skin tissues and subjected to Western-blotting analysis. In this manner, the expression levels of LC3-II and p62 proteins, which are localized in autophagosome membrane and finally decomposed by autophagy, were determined. A mouse anti-human LC3 antibody (Cosmo Bio) and rabbit anti-human p62 antibody (MBL International) were used as primary antibodies.
smiles,measurement,setting,value
"COc1ccc2cc3[n+](cc2c1OC)CCc1cc2c(cc1-3)OCO2 [berberine, Berberine]",darkening of skin color,"human skin tissue [1]; berberine 10 or 30 μM (Caucasian) and 30 or 100 μM (African American), six or four days, FIGS. 5 and 6",darkening of skin color was induced in a berberine dose-dependent manner
same,AMPK activation action,AMPK,has an AMPK activation action
same,deposition of melanin on the epidermal layer (tissue staining),"human skin tissue [2]; berberine 10 or 30 μM and 30 or 100 μM, FIGS. 5 and 6",Deposition of melanin on the epidermal layer was confirmed
same,expression level of Pmel17,"Pmel17; berberine 10, 30 or 60 μM",accumulation of Pmel17 protein in a dose-dependent manner was observed
same,expression level of LC3-II protein,LC3-II and p62 proteins [3],LC3-II and p62 proteins are accumulated in a berberine dose-dependent manner
same,expression level of p62 protein,LC3-II and p62 proteins [3],LC3-II and p62 proteins are accumulated in a berberine dose-dependent manner
CCN(CC)CCCC(C)Nc1ccnc2cc(Cl)ccc12 (stereo not drawn) [Chloroquine diphosphate],accumulation of LC3-II,LC3-II,Accumulation of LC3-II was induced
"N=C(N)NC(=N)NCCc1ccccc1 [phenformin, Phenformin]",hair color darkening,human hair follicle,Apparent hair color darkening was induced
same,skin color darkening (dose dependent),"human skin tissue [1]; phenformin 100, 200 or 300 μM, 4 days, FIG. 4",Recognizable darkening was observed in a dose-dependent manner
same,accumulation of melanin in the epidermis,"human skin tissue [2]; phenformin 300 μM, skin tissue, FIGS. 2A, 2B",significant accumulation of melanin in the epidermis was observed
same,melanin deposition,"human skin tissue [2]; phenformin 100, 200 or 300 μM, 4 days, data not shown","melanin deposition, which is correlated with a change in skin color, was confirmed"
same,amount of Pmel17 protein,Pmel17 protein,amount of Pmel17 protein is increased
same,autophagy,[4],activates autophagy through activation of AMPK
same,expression level of Pmel17,Pmel17; phenformin 100 or 200 μM,accumulation of Pmel17 protein in a dose-dependent manner was observed
same,expression level of LC3-II protein,LC3-II and p62 proteins [5],Accumulation of LC3-II and p62 proteins by addition of phenformin was observed
same,expression level of p62 protein,LC3-II and p62 proteins [5],Accumulation of LC3-II and p62 proteins by addition of phenformin was observed
same,expression level of LC3-II protein,LC3-II and p62 proteins [6],accumulation on both markers was observed
same,expression level of p62 protein,LC3-II and p62 proteins [6],accumulation on both markers was observed
